The values below come from patent US11465980B2, “6-membered aza-heterocyclic containing delta-opioid receptor modulating compounds, methods of using and making the same” (Trevena, Inc., priority 2015, dated 2022).

Test [1] relates to rat. As to the kind of experiment: Hemilesioned rat 6-OHDA model (bar, drag, rotarod tests). In kind it is in vivo. Conditions: route sc, p < 0.05 vs vehicle. Here is the method: Compounds were tested for efficacy in reversing akinesia and bradykinesia in two well accepted rodent Parkinson's disease (PD) models; the haloperidol-induced rat catalepsy and 6-OHDA rat hemiparkinson lesion models.
In the hemilesioned rat 6-OHDA model, the effect of compound on the akinetic response to lesioning of the contralateral forepaw in the bar test and stepping activity as measured by the drag test were determined. […] This assay examines efficacy for reversing PD motor symptoms (i.e. akinesia/bradykinesia and gait abilities). The behavioral readouts will include immobility time in the bar test (akinesia), number of steps in the drag test (akinesia/bradykinesia) and time spent on rod in the rotarod test (overall gait ability, gross motor behavior). Compounds were administered subcutaneously and efficacy was evaluated between 30 and 90 min post dose.
Background: In the rotarod test animals must keep their balance on a rotating rod.

Test [2] relates to mouse. In words: Tactile allodynia produced by nitroglycerin (migraine model, mouse). Conditions: route sc, nitroglycerin 10 mg/kg ip, p < 0.05 vs vehicle. In kind it is in vivo. Here is the method: Compounds were tested for efficacy in rodent models of nitroglycerine induced migraine. In this model both rats and mice can be induced to have a behavioral response consistent with the progression of a migraine attack by the intraperitoneal injection of nitroglycerin. In this test mice or rats (n=8/group) are given an intraperitoneal injection of nitroglycerin at 10 mg/kg. After 90 minutes the animals are subcutaneously dosed with test compound. A measurement of mechanical allodynia will be obtained using the up/down method with seven von Frey monofilaments. There is a specific series used for rat and mouse. Each monofilament is delivered to the hind paw for approximately 1-2 seconds. If there is a response, the next lower force will be delivered. This procedure will be performed until no response was made at the highest force or until four stimuli are administered following the initial response. The 50% paw withdrawal threshold for the hind paw will be calculated using the following formula: [Xth]log=[vFr]log+ky where [vFr] is the force of the last von Frey used, k is the average interval (in log units) between the von Frey monofilaments, and y is a value that depends upon the pattern of withdrawal responses. Testing for tactile sensitivity will be performed and a withdrawal value will be assigned as the tactile sensitivity (expressed in grams of force required to elicit a response) for the injected paw for each animal. Data is presented as the mean grams required to produce a hind paw withdrawal from the von Frey stimulus. […] Compounds found to be effective in this model of migraine at the doses indicated, although other doses may also be active. Other compounds described herein were not necessarily tested, but are expected to be able have some level of efficacy.

Test [3] concerns mouse. In words: Tactile allodynia produced by intraplantar Freund's Complete Adjuvant, von Frey (mouse). In kind it is in vivo. To be noted: route sc, p < 0.05 vs vehicle. Here is the method:
(§1) Animals were acclimated to the vivarium for at least 48 hr prior to behavioral testing. Inflammation was induced for both rodent species with the administration of an intraplantar (subcutaneous injection into the plantar surface of the hind paw, i.pl.) injection of 0.10 ml Freund's Complete Adjuvant (FCA).
For mouse studies, the experiments were conducted 48 hours after FCA administration. Tactile allodynia was measured using a series of von Frey monofilaments. These filaments are bendable, plastic and intended to poke, not penetrate, the skin. Animals were placed in a Plexiglas chamber (approximately 10 cm×20 cm×25 cm) and allowed to habituate for 5-10 minutes. The chamber was positioned on top of a mesh screen so that von Frey monofilaments can be presented to the plantar surface of the hind paw that is inflamed. The measurement of tactile sensitivity for the injected hind paw is obtained using the up/down method (LaBuda and Little, 2005, J Neurosci. Methods, 144, 175) with […]. Each trial will start with a von Frey force of 0.6 grams delivered to the hind paw for approximately 1-2 seconds. If there was no withdrawal response, the next higher force was be delivered. If there was a response, the next lower force was delivered. This procedure was performed until no response was made at the highest force (2 grams) or until four stimuli are administered following the initial response. The 50% paw withdrawal threshold for the hind paw was be calculated using the following formula: [Xth]log=[vFi]log+ky where [vFr] is the force of the last von Frey used, k is the average interval (in log units) between the von Frey monofilaments, and y is a value that depends upon the pattern of withdrawal responses (Dixon, Annual Review Pharmacol Toxicol, 1980, 20, 441).

Test [4] deals with rat. As to the kind of experiment: Tactile allodynia produced by nitroglycerin (migraine model, rat). To be noted: route sc, po, nitroglycerin 10 mg/kg ip, p < 0.05 vs vehicle. Format: in vivo.
Test [5] concerns rat. In words: Mechanical allodynia after Freund's Complete Adjuvant, Randall-Selitto (rat). Format: in vivo. To be noted: route sc, p < 0.05 vs vehicle. Here is the method:
as §1
For rat studies, the experiments were conducted 24 hours after CFA administration. Rats are tested for mechanical allodynia in a Randall-Selitto apparatus. The inflamed paw is put on a pedestal and a pointed force of increasing intensity (0 to 250 grams) is applied to the paw. When the animal struggles to withdraw from the force the test is stopped and the force to induce that struggle is recorded. Data may be presented as mean grams of force to withdrawal or a percentage of the maximum possible effect.

In test [6] the test system is male c57bl6J mice. As to the kind of experiment: Reversal of opioid-induced hyperalgesia (morphine). Format: in vivo, mouse. Conditions: 10 mg/kg s.c., 30 min prior to testing; morphine twice daily for 4 days; FIG. 4. Here is the method: Next it was determined that B1049 could reverse opioid-induced hyperalgesia. Mice (44 male c57bl6J mice, n=8-9/group) were habituated for 2 days on testing rack prior to injections. Mice were treated with vehicle (VEH-VEH (saline), VEH-B1049 (10% BCD-saline)) or morphine (MORPH) (20 mg/kg, s.c. days 1-3, 40 mg/kg s.c. day 4) twice daily (9 a.m. and 5 p.m.) for 4 days. Mechanical sensitivity was measured as the 50% withdrawal threshold to manual von Frey hair stimulation on day 5. Baseline measurement were taken 16 hours after final MORPH/VEH injection and 3 h later, post-drug measurements were taken after dosing with B1049 (10 mg/kg, s.c., 30 min prior to testing) or SNC80 (10 mg/kg, i.p., 45 min prior to testing). (***p<0.001 compared to post-drug SUMA-VEH). The results are illustrated in FIG. 4.

For test [7], the system named is male c57bl6J mice. In words: Reversal of tactile allodynia produced by repeat dosing of sumatriptan (medication overuse headache). In kind it is in vivo, mouse. Conditions: 10 mg/kg s.c., 30 min prior to testing; sumatriptan 0.6 mg/kg i.p. daily for 11 days; FIG. 3. Here is the method: Compounds were evaluated for their ability to treat Medication Overuse Headache (“MOH”). Assessment of reversal of tactile allodynia produced by repeat dosing of sumatriptan in mice: Mice (44 male c57bl6J mice, n=8-9/group) were habituated for 2 days on testing rack prior to injections. Mice were treated with vehicle (VEH-VEH (saline) VEH-B1049 (10% BCD-saline)) or sumatriptan (SUMA) (0.6 mg/kg, i.p.) daily for 11 days. Mechanical sensitivity was measured as the 50% withdrawal threshold to manual von Frey hair stimulation on day 12. Baseline measurement were taken 24 hours after final SUMA/VEH injection and 3 h later, post-drug measurements were taken after dosing with B1049 (10 mg/kg, s.c., 30 min prior to testing) or SNC80 (10 mg/kg, i.p., 45 min prior to testing). (***p<0.001 compared to post-drug SUMA-VEH). The results are illustrated in FIG. 3.

Turning to `COCCOc1cccc([C@@H]2CCN(CCn3cccc3)[C@H](C)[C@H]2COc2ccc3c(c2)C(=O)NC3)c1` (relative stereo) [Compound B1049, (−)-6-{[(trans, trans)-4-[3-(2-methoxyethoxy)phenyl]-2-methyl-1-[2-(1H-pyrrol-1-yl)ethyl]piperidin-3-yl]methoxy}-2,3-dihydro-1H-isoindol-1-one], the “Active Dose (hemilesioned rat 6-OHDA model)” value in test [1] is not above 30 mg/kg. Moreover, the “Active Migraine Doses” value in test [2] was not above 10 mg/kg; in test [4], not above 30 mg/kg. The “Active CFA Dose” value in test [3] and in test [5] was not above 10 mg/kg in each case. In addition, the “reversal of opioid induced hyperalgesia” value in test [6] is reported as “able to reverse opioid induced hyperalgesia”. Further, the “reversal of tactile allodynia produced by repeat dosing of sumatriptan” value in test [7] is reported as “able to reverse tactile allodynia produced by repeat dosing of sumatriptan”.
